pIC50: −log10 of the molar value.
Test system: NCI-H929 complex spheroids, viability % test/control
Assay: Anticancer human tumor NCI-H929 cell line growth inhibition [RAS];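 also: compound exposure lasted seven days before viability was read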;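 as to viability, T/C: 100% = DMSO vehicle control viability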
Settings: for pIC50: curve of first compound; for viability, T/C: stronger effect = lower value
Method in brief: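 Tumour cells grown as complex spheroids with HUVEC endothelial cells and mesenchymal stem cells, treated with RAS pathway inhibitor combinations. Each agent spans half-log steps from near clinical Cmax, or 10 microM where Cmax is unknown.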

pIC50 (second compound 0.000949 µM): < 5.00
pIC50 (second compound 0.003 µM): < 5.00
pIC50 (second compound 0.00949 µM): < 5.00
pIC50 (second compound 0.03 µM): < 5.00
pIC50 (second compound 0.0949 µM): < 5.00
pIC50 (second compound 0.3 µM): < 5.00
SMILES: Cc1nc(N2CCC3(CC2)COC(C)C3N)c(CO)nc1Sc1ccnc(N)c1Cl (configuration not stated) + CCn1c(-c2cccnc2C(C)OC)c2c3cc(ccc31)N1CCOC(CC(NC(=O)C(C(C)C)N(C)C(=O)C3(F)CCN(C(=O)C#CC(C)(C)N(C)C)CC3)C(=O)N3CCCC(N3)C(=O)OCC(C)(C)C2)C1
viability, T/C (second compound 0.000949 µM, first compound 0.0316 µM): 108%
viability, T/C (second compound 0.000949 µM, first compound 0.1 µM): 99.1%
viability, T/C (second compound 0.000949 µM, first compound 0.316 µM): 102%
viability, T/C (second compound 0.000949 µM, first compound 1 µM): 102%
viability, T/C (second compound 0.000949 µM, first compound 3.16 µM): 102%
viability, T/C (second compound 0.000949 µM, first compound 10 µM): 97.8%
viability, T/C (second compound 0.003 µM, first compound 0.0316 µM): 103%
viability, T/C (second compound 0.003 µM, first compound 0.1 µM): 105%
viability, T/C (second compound 0.003 µM, first compound 0.316 µM): 102%
viability, T/C (second compound 0.003 µM, first compound 1 µM): 101%
viability, T/C (second compound 0.003 µM, first compound 3.16 µM): 103%
viability, T/C (second compound 0.003 µM, first compound 10 µM): 99.5%
viability, T/C (second compound 0.00949 µM, first compound 0.0316 µM): 102%
viability, T/C (second compound 0.00949 µM, first compound 0.1 µM): 101%
viability, T/C (second compound 0.00949 µM, first compound 0.316 µM): 108%
viability, T/C (second compound 0.00949 µM, first compound 1 µM): 100%
viability, T/C (second compound 0.00949 µM, first compound 3.16 µM): 104%
viability, T/C (second compound 0.00949 µM, first compound 10 µM): 102%
viability, T/C (second compound 0.03 µM, first compound 0.0316 µM): 99.4%
viability, T/C (second compound 0.03 µM, first compound 0.1 µM): 103%
viability, T/C (second compound 0.03 µM, first compound 0.316 µM): 103%
viability, T/C (second compound 0.03 µM, first compound 1 µM): 99.8%
viability, T/C (second compound 0.03 µM, first compound 3.16 µM): 106%
viability, T/C (second compound 0.03 µM, first compound 10 µM): 104%
viability, T/C (second compound 0.0949 µM, first compound 0.0316 µM): 104%
viability, T/C (second compound 0.0949 µM, first compound 0.1 µM): 97.1%
viability, T/C (second compound 0.0949 µM, first compound 0.316 µM): 98.2%
viability, T/C (second compound 0.0949 µM, first compound 1 µM): 101%
viability, T/C (second compound 0.0949 µM, first compound 3.16 µM): 98.2%
viability, T/C (second compound 0.0949 µM, first compound 10 µM): 95.7%
viability, T/C (second compound 0.3 µM, first compound 0.0316 µM): 102%
viability, T/C (second compound 0.3 µM, first compound 0.1 µM): 103%
viability, T/C (second compound 0.3 µM, first compound 0.316 µM): 101%
viability, T/C (second compound 0.3 µM, first compound 1 µM): 99.7%
viability, T/C (second compound 0.3 µM, first compound 3.16 µM): 98.2%
viability, T/C (second compound 0.3 µM, first compound 10 µM): 95.5%

Reference: PubChem BioAssay AID2060884 (Molecular Pharmacology Branch, DTP, NCI, 2025)
